# Laboratory results published in article PMC9698483, “Berbamine Reduces Chloroquine-Induced Itch in Mice through Inhibition of MrgprX1” (International Journal of Molecular Sciences, 2022).
# “And” between values parts separate entries of the source, which are not always exact repeats. Equal values may be shown once.
# Key:
# [1] = system: CQ-induced pruritus; assay: CQ-induced pruritus mouse model (scratching bouts); format: in vivo, BALB/c mice; conditions: 30 mg/kg intraperitoneally, 30 min before s.c. CQ (400 µg/50 µL), 30 min recording
# Procedure: (§1) To investigate the antipruritic effect of berbamine, we observed the effect of berbamine on pruritogen-induced scratching behavior in BALB/c mice. Mice were transferred to clear cages and treated with berbamine intraperitoneally after a 30 min acclimatization period. Mouse behavior was recorded for 30 min right after the subcutaneous injection of pruritogens to the nape 30 min after berbamine treatment (Figure 7A). […] We further investigated the effect of berbamine on pruritus caused by other pruritogens.
# (§2) Figure 7 Effect of berbamine on acute pruritogen-induced pruritus in mice: (A) Scheme of acute pruritogen-induced pruritus mouse model. […] Statistical significance of differences between each group and CQ group was assessed using one-way ANOVA with Tukey’s post hoc test. * p < 0.05, ** p < 0.01, *** p < 0.001. […] Statistical significance of differences was determined using Student’s t-test. […]
# (§3) […] six-week-old BALB/c male mice were purchased from DBL (Chungcheong-do, Republic of Korea), and an additional 1 week was given for accommodation. […] After 30 min, pruritogen compounds (i.e., CQ, histamine, PAR2-AP, and DCA) were subcutaneously administered into the nape, and scratching bouts were recorded for 30 min. […] The total number of scratching bouts was counted by recording the number of scratching bouts in the recorded video over 30 min of observation time.
# [2] = target: T1, TGR5 (Homo sapiens, UniProt Q8TDU6); assay: TGR5 activity by YFP fluorescence quenching assay in CHO-K1 cells; format: cell-based; conditions: 30 μM with 80 μM DCA for 10 min
# T1 construct: expressed in transfected cells; host or cells: CHO-K1
# T1 sequence (Q8TDU6 1-330): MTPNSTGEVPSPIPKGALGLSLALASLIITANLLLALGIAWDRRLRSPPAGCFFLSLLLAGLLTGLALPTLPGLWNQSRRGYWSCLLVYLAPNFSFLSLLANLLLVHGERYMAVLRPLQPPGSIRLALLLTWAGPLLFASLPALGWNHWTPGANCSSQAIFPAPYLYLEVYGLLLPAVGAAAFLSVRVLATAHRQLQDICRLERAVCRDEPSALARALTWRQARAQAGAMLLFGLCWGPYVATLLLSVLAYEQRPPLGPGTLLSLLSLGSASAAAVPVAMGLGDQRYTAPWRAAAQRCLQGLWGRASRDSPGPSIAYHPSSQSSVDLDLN
# Procedure: Figure 3 Effects of berbamine on the activity of other pruritogenic GPCRs: (A,B) Effect of berbamine on histamine 1 receptor (H1R) and histamine 4 receptor (H4R). H1R- and H4R-expressing HEK293T cells were pretreated with 30 μM BBM for 10 min prior to 100 μM histamine treatment. […] (C) Effect of berbamine on PAR2. HT29 cells were pretreated with BBM for 10 min prior to 30 μM PAR2-AP treatment. […] (D) Effect of berbamine on MrgprC11. MrgprC11-expressing HEK293T cells were pretreated with BBM for 10 min prior to 100 μM […] treatment. (E) Effect of berbamine on MrgprX4. MrgprX4-expressing HEK293T cells were pretreated with BBM for 10 min prior to 80 μM DCA treatment. (F) Effect of berbamine on TGR5. TGR5 activity was measured using a YFP fluorescence quenching assay. CHO-K1 cells coexpressing TGR5 and a halide sensor YFP were pretreated with BBM and 80 μM DCA for 10 min prior to I^- treatment. Results were summarized as means ± S.E. (n = 6). NTC, nontransfected cells.
# All modulators were dissolved in DMSO, and cells were treated with a final concentration of 1% DMSO.
# [3] = system: histamine-induced itch; assay: Histamine-induced pruritus in mice (scratching bouts); format: in vivo, BALB/c mice; conditions: 30 mg/kg i.p.
# Procedure: as §1, §2, §3
# [4] = target: T2, MrgprA3 (Mus musculus, UniProt Q91WW3); assay: Intracellular calcium measurement in HEK293T cells expressing mouse MrgprA3; format: cell-based; conditions: pretreated 10 min prior to 300 μM CQ; read-out: IC50 of inhibition of CQ-induced MrgprA3 activation
# T2 construct: expressed in transfected cells; host or cells: HEK293T
# T2 sequence (Q91WW3 1-302): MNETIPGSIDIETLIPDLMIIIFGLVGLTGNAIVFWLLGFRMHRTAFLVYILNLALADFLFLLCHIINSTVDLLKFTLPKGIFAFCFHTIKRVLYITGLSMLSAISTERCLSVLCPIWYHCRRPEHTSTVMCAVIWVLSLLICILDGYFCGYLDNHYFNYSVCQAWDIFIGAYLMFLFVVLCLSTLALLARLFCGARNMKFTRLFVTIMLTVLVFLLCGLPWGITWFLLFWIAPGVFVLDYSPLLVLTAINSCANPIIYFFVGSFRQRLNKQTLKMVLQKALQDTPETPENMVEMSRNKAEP
# Procedure: MRGPRA3 and MRGPRC11 are mouse orthologs of human MRGPRX1, and MrgprA3 is also activated by CQ, resulting in CQ-induced pruritus. To investigate the inhibitory effect of berbamine on MrgprA3, we established HEK293T cells overexpressing MrgprA3. […] We further investigated whether berbamine inhibited CQ-induced ERK1/2 phosphorylation in HEK-MrgprA3 cells. Strong and significant ERK1/2 phosphorylation was observed following CQ application, and ERK1/2 phosphorylation peaked 5 min after CQ treatment (Figure 6A,B).
# Figure 5 Effect of berbamine on CQ-induced activation of MrgprA3: (A) Intracellular calcium levels were measured in HEK293T cells expressing mouse MrgprA3. Cells were treated with indicated concentrations of CQ. (B) Summary of dose–response (mean ± S.E., n = 6). (C) Cells were pretreated with indicated concentrations of berbamine for 10 min prior to 300 μM CQ treatment. (D) Summary of dose-response (mean ± S.E., n = 6). (E) Representative traces of intracellular calcium responses to BAM8−22 in HEK293T cells expressing MrgprC11. […]
# Intracellular calcium levels were measured using a Fluo-4 NW calcium assay kit (Invitrogen, Carlsbad, CA) as per the manufacturer’s protocol in HEK293T and HT29 cells. […] After 1 h of incubation, Fluo-4 fluorescence was recorded with a FLUOstar Omega microplate reader equipped with syringe pumps and custom Fluo-4 excitation/emission filters (485/538 nm). […]
smiles,measurement,setting,value
COc1cc2c3cc1Oc1c(OC)c(OC)cc4c1[C@@H](Cc1ccc(O)c(c1)Oc1ccc(cc1)C[C@@H]3N(C)CC2)N(C)CC4 [berbamine],attenuation of CQ-induced pruritus (total scratching bouts),[1],80% and ~ 80%
same,effect on DCA-induced activation of TGR5,[2],did not alter
same,effect on total scratching bouts induced by histamine,[3],no significant effect
same,IC50,[4],2.9 µM
